Data: paper PMC4532598 (European journal of pharmacology, 2015)
Entries after “also recorded” stand apart in the source; their conditions may differ.

Key:
hKOP receptor [1] = target: T1, hKOP receptor (Homo sapiens, UniProt P41145)
hKOP receptor [2] = target: T1, hKOP receptor; assay: cell-based; assay type: cell-based; conditions: for Emax: read-out: Internalization Emax (% receptor internalized)
hKOP receptor [3] = target: T1, hKOP receptor; assay: biochemical; assay type: biochemical; conditions: for Emax: read-out: [35S]GTPγS binding Emax
mKOP receptor [4] = target: T2, mKOP receptor (Mus musculus, UniProt P33534); assay: cell-based; assay type: cell-based
T2 sequence (P33534 whole entry): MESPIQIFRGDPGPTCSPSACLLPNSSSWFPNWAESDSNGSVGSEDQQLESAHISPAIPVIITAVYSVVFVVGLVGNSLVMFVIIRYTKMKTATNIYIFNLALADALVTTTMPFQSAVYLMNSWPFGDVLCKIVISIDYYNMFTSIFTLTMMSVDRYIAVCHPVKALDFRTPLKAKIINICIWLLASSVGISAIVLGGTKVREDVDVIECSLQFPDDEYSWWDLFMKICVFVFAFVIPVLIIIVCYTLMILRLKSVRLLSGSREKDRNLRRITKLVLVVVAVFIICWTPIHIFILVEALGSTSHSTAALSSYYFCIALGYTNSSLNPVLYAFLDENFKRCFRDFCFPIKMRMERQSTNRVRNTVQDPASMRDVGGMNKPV

mKOP receptor [5] = target: T2, mKOP receptor; assay: biochemical; assay type: biochemical; conditions: for Emax: read-out: [35S]GTPγS binding Emax
mKOP receptor [6] = target: T2, mKOP receptor
mice = conditions: mouse, in vivo; cited from earlier work

T1 sequence (P41145 whole entry): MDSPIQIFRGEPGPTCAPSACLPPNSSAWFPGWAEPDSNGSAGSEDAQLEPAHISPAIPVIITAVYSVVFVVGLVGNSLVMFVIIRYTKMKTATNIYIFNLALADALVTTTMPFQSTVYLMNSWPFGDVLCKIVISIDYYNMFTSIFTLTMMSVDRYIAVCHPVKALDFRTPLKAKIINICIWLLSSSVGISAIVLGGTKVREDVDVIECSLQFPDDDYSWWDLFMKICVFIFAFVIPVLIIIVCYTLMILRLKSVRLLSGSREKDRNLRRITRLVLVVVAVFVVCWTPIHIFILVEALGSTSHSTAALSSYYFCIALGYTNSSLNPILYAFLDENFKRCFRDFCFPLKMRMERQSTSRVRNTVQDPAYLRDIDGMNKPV

Row | Molecule | Bias factor (larger RAi divided by smaller) (hKOP receptor [1]) | Bias factor, direction of bias (hKOP receptor [1]) | Functional selectivity (bias) in words (hKOP receptor [1]) | Internalization Emax (% receptor internalized) (hKOP receptor [2]) | EC50 (hKOP receptor [2]; Internalization pEC50) [nM] | Emax (hKOP receptor [2]) [%] | EC50 (hKOP receptor [3]; [35S]GTPγS binding EC50, mean) [nM] | Emax (hKOP receptor [3]) [%] | log RAi−I (hKOP receptor [2]) | EC50 (hKOP receptor [3]; [35S]GTPγS binding pEC50) [nM] | other results
1 | COC(=O)/C=C/C(=O)N[C@@H]1CC[C@@]2(O)[C@H]3Cc4ccc(O)c5c4[C@@]2(CCN3CC2CC2)[C@H]1O5 [β-FNA, β-funaltrexamine] | I ^c, 1.2 | I ^c, 1.2 | did not reach statistical significance | 32.8 ± 5.7% |  |  |  |  |  |  | Internalization pEC50 (hKOP receptor [2]): 8.02 ± 0.47 (9.6); EC50 (hKOP receptor [2]; read-out: Internalization EC50, mean): 9.6 nM; [35S]GTPγS binding Emax (hKOP receptor [3]): 63.7 ± 2.4%; [35S]GTPγS binding pEC50 (hKOP receptor [3]): 8.08 ± 0.09 (8.4); EC50 (hKOP receptor [3]; read-out: [35S]GTPγS binding EC50, mean): 8.4 nM
2 | CN1c2ccccc2C(c2ccccc2F)=NCC1CNC(=O)c1ccsc1 (centres unmarked) [Tifluadom, tifluadom] |  | I, 11.8 |  |  | 11.2 | 29.6 ± 2.1 | 333 | 97.2 ± 11 |  |  | 
3 | CCC12CCN(CC3(O)CC3)C(Cc3ccc(O)cc31)C2(C)C (centres unmarked) [Bremazocine, bremazocine] | I ^c, 1.2 | I ^c, 1.2 | did not reach statistical significance |  | 1.35 | 39.2 ± 1.8 | 0.95 | 68.2 ± 2 | 0.58 ± 0.16 |  | EC50 (hKOP receptor [2]; Internalization EC50, mean): 1.4 nM; log RAi−G (hKOP receptor [3]): 0.50 ± 0.11
4 | Oc1ccc2c(c1)[C@@]13CCCC[C@@]1(O)[C@@H](C2)N(CC1CCC1)CC3 [Butorphanol, butorphanol] |  | I ^c, 4.7 | did not reach statistical significance |  | 3.31 | 33.4 ± 3.2 | 2.4 | 25.6 ± 1.8 | 0.088 ± 0.18 | 2.34 | 
5 | CN1CC[C@]23CCCC[C@H]2[C@H]1Cc1ccc(O)cc13 [Levorphanol, levorphanol] |  |  |  | did not cause significant internalization; also recorded: lacked an effect on receptor internalization; also recorded: did not cause receptor internalization; also recorded: No internalization |  |  | 72 | 38.1 ± 4.8 |  |  | EC50 (mKOP receptor [4]): 0.83 nM; log RAi−I (mKOP receptor [4]): 0.29 ± 0.35; Emax (mKOP receptor [4]; read-out: Internalization Emax (% receptor internalized)): 29.7 ± 1.7%; Agonist efficacy in [35S]GTPγS binding, in words (mKOP receptor [5]): partial agonists; EC50 (mKOP receptor [5]; [35S]GTPγS binding pEC50): 30.2 nM; Emax (mKOP receptor [5]): 62.3 ± 2.9%; Bias factor, direction of bias (mKOP receptor [6]): I, 244; Bias factor, direction, mKOP receptor (Table 5) (mKOP receptor [6]): I, 244; Bias factor, mKOP receptor (Table 5) (mKOP receptor [6]): I, 244; Functional selectivity (bias) in words (mKOP receptor [6]): internalization-biased; log RAi−G/RAi−I (log bias) (mKOP receptor [6]): −2.39 ± 0.37; Internalization pEC50 (hKOP receptor [2]): No internalization; Agonist efficacy in [35S]GTPγS binding, in words (hKOP receptor [3]): weak partial agonist; also recorded: partial agonists
6 | CC(C)=CCN1CCC2(C)c3cc(O)ccc3CC1C2C (centres unmarked) [Pentazocine, pentazocine] | I ^c, 5.8 | I ^c, 5.8 |  |  | 91.2 | 37 ± 13.3 | 28 | 20.5 ± 6.9 | −0.87 ± 0.22 | 28.2 | Internalization Emax (% receptor internalized) (mKOP receptor [4]): did not cause significant internalization; also recorded: lacked significant effects on receptor internalization; also recorded: did not cause receptor internalization; also recorded: not mKOP receptor; also recorded: No internalization; Agonist efficacy in [35S]GTPγS binding, in words (mKOP receptor [5]): partial agonists; Emax (mKOP receptor [5]): 46.6 ± 2.7%; Bias factor, direction, hKOP receptor (Table 5) (hKOP receptor [1]): I ^c, 5.8; Bias factor, hKOP receptor (Table 5) (hKOP receptor [1]): I ^c, 5.8; EC50 (hKOP receptor [2]; Internalization EC50, mean): 92 nM; Agonist efficacy in [35S]GTPγS binding, in words (hKOP receptor [3]): partial agonists
7 | RB-64 |  |  |  |  |  |  |  |  |  |  | Sedation and anhedonia-like actions (mice): did not induce sedation or anhedonia-like effects
8 | C=CCN1CC[C@]23c4c5ccc(O)c4O[C@H]2[C@@H](O)C=C[C@H]3[C@H]1C5 [Nalorphine, nalorphine] | I ^c, 2.5 | I ^c, 2.5 | did not reach statistical significance | 23.7 ± 4.0% | 12 | 23.9 |  | 51.4 ± 2.3 |  | 27.5 | 
9 | COC(=O)[C@@H]1C[C@H](OC(C)=O)C(=O)[C@H]2[C@@]1(C)CC[C@H]1C(=O)O[C@H](c3ccoc3)C[C@]21C [Salvinorin A, salvinorin A] |  |  |  |  |  |  |  |  |  |  | Sedation and anhedonia-like actions (mice): produced sedation and anhedonia-like actions
10 | CC[C@]12CCN(CC3CC3)[C@H](C(=O)c3ccc(O)cc31)[C@@H]2C [EKC, ethylketocyclazocine] |  | I, 3.1 |  |  |  | 44.8 ± 2.2 |  | 80.6 ± 1.5 |  |  | log RAi−G (hKOP receptor [3]): 0.015 ± 0.11
